Source: patent US12516052B2, “Methyltransferase 5 (PRMT5) inhibitors and methods of treatment” (THE TRUSTEES OF INDIANA UNIVERSITY, priority 2016, dated 2026)
pIC50: −log10 of the molar value. Entries after “also recorded” stand apart in the source; their conditions may differ.

Experiments:
[1] = system: PDAC cells (PANC1, MiaPaCa2 and AsPC1); assay: MTT cell viability assay in PDAC cell lines; type: cell-based
Method: (§1) The PRMT5 inhibitory activity of the compounds from the screen was confirmed using both AlphaLISA and an MTT [(3-(4,5-dimethylthiazolyl-2)-2,5-diphenyltetrazolium bromide)] assay (PerkinElmer, Waltham, MA). For the MTT assay, cells were seeded at 90% confluence in 96-well plates and titrated with different dosages of compound (IIa) for 4 days. Media was then removed and 100 μl of MTT (Sigma-Aldrich, St. Louis, MO) was added per well. Cells were incubated for 2 hours at 37° C. before adding 100 μl of DMSO to each well and quantified with the SYNERGY™ H1 Multi-Mode Reader (BioTek Instruments Inc., Winooski, VT). The expression of PRMT5 was examined in pancreatic ductal adenocarcinoma cells at multiple stages of disease progression and in multiple colorectal cancer cell lines. Pancreatic control (HPNE) and cancer cell lines (PANC1, MiaPaCa2 and AsPC1) were grown in Dulbecco's Modified Eagle Medium (DMEM) (GE Healthcare, Little Chalfont, UK), supplemented with 1% of penicillin/streptomycin, 10% fetal bovine serum (FBS). Colon control (FHC) and cancer (HT29, HCT116, and DLD1) cell lines were maintained in RPMI 1640 Medium (Roswell Park Memorial Institute Medium) (GE Healthcare, Little Chalfont, UK), containing 1% penicillin/streptomycin and 10% FBS, while FHC cells were cultured under the same condition with further addition of 25 mM HEPES (4-(2-hydroxyethyl)-1-piperazineethanesulfonic acid), 10 ng/ml cholera toxin, 0.005 mg/ml insulin, 0.005 mg/ml transferring, and 100 ng/ml hydrocortisone. All cell lines were cultured at 37° C. under 5% CO2. The PDAC and CRC cell lines described above were treated with increasing concentrations of compound (IIa) or the commercially available PRMT5 inhibitor EPZ015666 [drawing 12] and quantified for cell viability using the MTT assay described above. […] A soft agar experiment was also performed to determine the effect of compound (IIa) on colony growth.

[2] = system: methamphetamine-treated rats; assay: Striatal neurotransmitter levels (HPLC) in methamphetamine-treated rats; type: in vivo; conditions: methamphetamine 7.5 mg/kg ×4, then 4 injections of 1 mg/kg at 12 hour intervals, vs vehicle
Method: Rats were given methamphetamine treatment 7.5 mg/kg, 4 injections spaced out at 2 hours each. Then, 4 injections of 1 mg/kg of compound (IIa) or vehicle control were given at 12 hours, 24 hours, 36 hours, and 48 hours after the last methamphetamine injection. Rats were sacrificed 24 hours after the last injection and neurotransmitter levels were quantified in the striatum using high performance liquid chromatography (HPLC).

[3] = Body weight of xenografted NSG mice during treatment; type: in vivo; conditions: 20 mg/kg intraperitoneally 3×/week, over the course of treatment
Method: NSG (NOD scid gamma) mice were obtained from the In Vivo Therapeutics Core at Indiana University School of Medicine. After acclimation for 7 days, NSG mice (6-8 weeks old) were xenografted with mycoplasma-free PANC1 or HT29 cells subcutaneously (1×10^7 PANC1 or 3×10^6 HT29 cells used per mouse in 0.2 ml of a 1:1 mix of phosphate-buffered saline and MATRIGEL™) (BD Biosciences, San Jose, CA). Mice were randomized when tumor volumes reached about 100 mm^3. Mice were treated with either vehicle control or 20 mg/kg of compound (Ia) (drug stock dissolved in 1:1 CREMOPHOR™:ethanol solution) intraperitoneally 3 times per week. Tumor volumes and body weights were measured twice a week. The study was performed in accordance with the guidelines and standards of the Institutional Animal Care and Use Committee (IACUC). […] NSG (NOD scid gamma) mice were obtained from the In Vivo Therapeutics Core at Indiana University School of Medicine. After acclimation for 7 days, NSG mice (6-8 weeks old) were xenografted with mycoplasma-free PANC1 or HT29 cells subcutaneously (1×10^7 PANC1 or 3×10^6 HT29 cells used per mouse in 0.2 ml of a 1:1 mix of phosphate-buffered saline and MATRIGEL™) (BD Biosciences, San Jose, CA). Mice were randomized when tumor volumes reached about 100 mm^3. Mice were treated with either vehicle control or 20 mg/kg of compound (IIa) (drug stock dissolved in 1:1 CREMOPHOR™:ethanol solution) intraperitoneally 3 times per week. Tumor volumes and body weights were measured twice a week. The study was performed in accordance with the guidelines and standards of the Institutional Animal Care and Use Committee (IACUC).

[4] = system: other protein arginine methyltransferase family members; assay: HotSpot radioisotope-based methyltransferase platform (Reaction Biology Corp); type: biochemical; conditions: did not inhibit or at least this fold higher IC50
[5] = system: CRC cells (HT29, HCT116 and DLD1); assay: MTT cell viability assay in CRC cell lines; type: cell-based
Method: as §1

[6] = system: NF-κB target genes (TNFα and IL8); assay: qPCR of NF-κB target genes in HT29 cells; type: cell-based; conditions: treated vs untreated
Method: (§2) Furthermore, experiments were performed to determine if PRMT5 inhibition by compound (IIa) could decrease the expression of NF-κB target genes (e.g., pro-inflammatory cytokines TNFα and IL-8). Briefly, HT29 and PANC1 cells were treated with or without compound (IIa), and target gene expression was analyzed by quantitative PCR.

[7] = system: PRMT5-mediated p65 methylation; assay: Co-immunoprecipitation-Western blot of p65 dimethylation in 293-WT-p65-Flag cells; type: cell-based; conditions: 20 μM for 24 hours, compared to untreated control
From the text: FIGS. 2A-D depict the experimental results of studies to determine the PRMT5 inhibitory activity of a compound of formula (II), a compound of formula (III), and a compound of formula (IV). […] Flag beads were used to pull down WT-p65-Flag and samples were then probed with anti-symmetric dimethyl arginine motif Ab (sdme-RG Ab) to detect dimethylation levels of the p65 subunit.
Amongst the hits, the leading compounds were a compound of formula (II), specifically compound (IIa), a compound of formula (III), specifically compound (IIIa), and a compound of formula (IV), specifically compound (Iva). […] To determine whether compound (IIa) reduced p65 methylation of NF-κB, Flag-p65 expressing cells were treated with 20 μM compound (IIa) for 24 hours, Flag-p65 was then pulled down with anti-Flag-M2 beads and analyzed with Western blot by probing with anti-dimethylated arginine (FIG. 2B).

[8] = system: NF-κB target genes (TNFα and IL8); assay: qPCR of NF-κB target genes in PANC1 cells; type: cell-based; conditions: treated vs untreated
Method: as §2

pIC50 ([1]; range over PANC1, MiaPaCa2 and AsPC1): 5.40 to 5.70
fold higher IC50 against other protein arginine methyltransferase family members [4]: ≥ 10 fold
pIC50 ([5]; range over HT29, HCT116 and DLD1): 4.96 to 5.00
Compound: Cc1ccc(Nc2nc(NCCN(C)C)nc3c2cnn3-c2ccccc2)cc1C [compound (IIa)]
cell viability in PDAC cells (PANC1, MiaPaCa2, AsPC1), MTT ([1]; increasing concentrations): decreased significantly
dopamine levels in the striatum [2]: increase
serotonin levels in the striatum [2]: increase
body weight, HT29 model [3]: did not visibly affect the body weight; also recorded: no significant changes in body weight
body weight, PANC1 model [3]: did not visibly affect the body weight; also recorded: no significant changes in body weight
cell viability in CRC cells (HT29, HCT116, DLD1), MTT ([5]; increasing concentrations): decreased significantly
IL8 expression (qPCR), HT29 [6]: significant decrease; also recorded: dramatically decreased
TNFα expression (qPCR), HT29 [6]: significant decrease; also recorded: dramatically decreased
methylation of PRMT5 substrate p65 [7]: significantly inhibited PRMT5-mediated p65 methylation; also recorded: inhibited the methylation of PRMT5 substrate, p65
IL8 expression (qPCR), PANC1 [8]: significant decrease; also recorded: dramatically decreased
TNFα expression (qPCR), PANC1 [8]: significant decrease; also recorded: dramatically decreased
